Experimental data taken from US20260193171A1, “PHARMACEUTICAL SALT OF POLYAMINE DERIVATIVE, CRYSTAL FORM THEREOF, AND PREPARATION METHOD THEREFOR” (WUHAN WUYAO SCI & TECH CO., LTD, priority 2022, published 2026).
Where two headings read alike, the source gives them in different places.

Columns and labels:
Format in all cases: physicochemical
[1] = Screening of salt form (salt-forming morphology); conditions: for Salt-forming morphology: free base in ethanol plus acid, room temperature, acid-base molar feeding ratio 1:1 (α, unmarked) or 3:1 (β)
Experimental: The subsequent processing steps were as follows: 1) the turbid system(s) was centrifuged to separate solids; 2) the wall-sticking and gelling system(s) was subjected to cyclic heating and cooling treatment at 25-50° C. (the heating and cooling procedure is shown in Table 5) for the purpose of trying to improve the apparent state/obtain solids; 3) the clear or slightly turbid system(s) was magnetically stirred at 5° C. for about 5 h, and then left to stand at −20° C. overnight for the purpose of trying to collect a sufficient amount of solids for subsequent characterization, and if the amount of solids was still low, slow volatilization at room temperature was performed; if the system(s) was still clear ultimately, anti-solvent addition (n-heptane) or slow volatilization at room temperature was performed. The solids obtained above were centrifuged.

[2] = Determination of hygroscopicity (Chinese Pharmacopoeia 2015); conditions: 25° C., 80% RH, 24 h; for Hygroscopicity (%): weight gain
Experimental: The hygroscopicity was determined by referring to the guiding principle of the hygroscopicity test of medicaments in the Phamacopoeia of the People's Republic of China 2015 Edition. The specific test method is as follows: • 1. taking a dried glass weighing bottle with a stopper (outside diameter: 50 mm, height: 15 mm) and placing in a suitable 25° C.±1° C. thermostatic dryer (with a saturated ammonium chloride or ammonium sulfate solution placed in the lower part) or a climatic cabinet (with temperature set at 25° C.±1° C., and relative humidity set at 80%±2%) one day before the test, and accurately weighing the weight (m1). • 2. taking an appropriate amount of a test sample, spreading it in the weighing bottle described above with a thickness of about 1 mm, and accurately weighing the weight (m2). • 3. opening the weighing bottle, and placing it under constant temperature and humidity conditions for 24 h together with the bottle cap. • 4. covering the weighing bottle, and accurately weighing the weight (m3).
(§1) The stability of the samples were determined by HPLC, and specifically, Agilent 1260 Infinity II LC System (equipped with a DAD detector) was used to collect the purity and solubility data of samples. The hygroscopicity of samples was determined according to the method in the Phamacopoeia of the People's Republic of China, and the specific determination method is shown in section “6. Determination of hygroscopicity” of the specification.

[3] = Solid stability test at 25° C./60% RH, chemical purity by HPLC; conditions: for Change in properties and purity on storage: 5 days and 2 weeks; for Purity (peak area, %) 0 day: initial sample; for Stability (judgement in words): room temperature storage
Experimental: The stability of a sample(s) was determined by HPLC, and specifically, Agilent 1260 Infinity II LC System (equipped with a DAD detector) was used to collect the purity and solubility data of the sample(s).
To assess the solid stability of different salts, about 15 mg of a sample was weighed into an HPLC vial, and the vial was opened and placed at 25° C./60% RH. The initial sample and the samples stored for 5 days and 2 weeks were subjected to chemical purity assays (HPLC) and hygroscopicity tests. […] The solid phosphate prepared with an acid-base feeding ratio of 1 or 3 was sampled to measure the acid-base ratio, and the test method for the content of phosphate radical ions is shown in Table 2.
as §1

[4] = Stability of acid-base ratio on recrystallization in methanol-water or water-methanol; conditions: methanol-water or water-methanol recrystallization system
[5] = Dynamic solubility in water and biological vehicles at 37° C.; conditions: for solubility: thermodynamic from solid, 100 rpm, 1/4/24 h, HPLC
Experimental: The phosphate was subjected to dynamic solubility tests in water and 3 biological vehicles (simulated gastric juice SGF, simulated fasting intestinal juice FaSSIF, and simulated feeding intestinal juice FeSSIF) at 37° C., and the specific method for the solubility tests were as follows: four samples of 30 mg each were weighed, and added into 3 mL of water and 3 biological solvents separately, and shaken at a constant temperature of 37° C.
The solubility of the phosphate in water/SGF/FaSSIF/FeSSIF was >9 mg/mL. The solubility of samples was determined by HPLC, and specifically, Agilent 1260 Infinity II LC System (equipped with a DAD detector) was used to collect the purity and solubility data of samples. […] The phosphate had good solubility both in water and simulated in-vivo environment.

[6] = Crystal form stability of phosphate crystal form A; conditions: 2 weeks
Experimental: The conditions of the X-ray powder diffractometer (XRPD) test were as follows: X-ray powder diffraction data of a sample(s) was collected at ambient conditions using Bruker D2 PHASER X-ray powder diffractometer with an X-ray emitter power of 300 W, a sample stage with no background signal, a step speed of 0.15 s/step, total step of 1837 steps, a step size of 2θ=0.02°, a voltage of 30 kV, and a current of 10 mA. The X-ray tube was a tube of Cu target (Kα) with a Kα2/Kα1 strength ratio of 0.50 (1.54439 Å/1.5406 Å).

[7] = Observation of isolated solid after filtration; conditions: after slurrying with ethyl acetate and filtration, room temperature
Experimental: The solution of phosphoric acid in methanol was slowly and dropwise added to the solution of the free base in methanol. The mixture was reacted under stirring at 0-5° C. for 4 h. Serious wall sticking was observed. After the methanol was concentrated to dryness, the sticky solid on the wall was scraped by a spatula, slurried with ethyl acetate, and then filtered. […] The oil was dried in an oven at 30° C. for 16 h to obtain a solid. The solid was sampled for purity, content, and acid-base ratio tests. The acid-base ratio is the molar amount of phosphoric acid/the molar amount of bis((N-3-aminopropyl)-(N-(3,4-dimethoxyphenylpropionyl)))aminopropylamine, namely the acid-base molar ratio.

[8] = Stability of free base left at room temperature

In the case of `O=C(O)/C=C/C(=O)O` [Fumaric acid], the Salt-forming morphology [1] is reported as “Gel^#”.
In the case of “bis((N-3-aminopropyl)-(N-(3,4-dimethoxyphenylpropionyl)))aminopropylamine hydrochloride [Hydrochloride^α]”, the Hygroscopicity class [2] is reported as “extremely hygroscopic” and the “Hygroscopicity (%)” value [2] is reported as 24.7%.
In the case of `O=C(O)c1ccccc1` [Benzoic acid], the Salt-forming morphology [1] is reported as “Oil^#”.
For `O=C(O)[C@H](O)[C@@H](O)C(=O)O` [L-tartaric acid], the Salt-forming morphology [1] was “Solid^※” and the “State of solid after being sealed and placed at room temperature” value ([1]; sealed, 1 week) was “gelled”.
In the case of `CS(=O)(=O)O` [Methanesulfonic acid], the Salt-forming morphology [1] is reported as “Gel*”.
With Oxalate the Hygroscopicity class [2] was “extremely hygroscopic”, the “Hygroscopicity (%)” value [2] was 18.62% and the Salt-forming morphology [1] was “Solid”.
For “bis((N-3-aminopropyl)-(N-(3,4-dimethoxyphenylpropionyl)))aminopropylamine phosphate”, the “Purity (peak area, %) 2 weeks” value ([3]; 25° C./60% RH, open vial, 2 weeks, HPLC) was 99.24%, the “Change in properties and purity on storage” value ([3]; 25° C./60% RH, open vial) was “change into liquid from powdery solid” and the “Purity (peak area, %) 5 days” value ([3]; 25° C./60% RH, open vial, 5 days, HPLC) was 99.41%. The “Purity (peak area, %) 0 day” value ([3]; 25° C./60% RH, open vial, HPLC) was 99.45%, the “Stability (judgement in words)” value [3] was “poor stability” and the “Change of acid-base ratio after recrystallization” value [4] was “more than 10%”. For the same molecule, the Hygroscopicity class [2] was “extremely hygroscopic” and the “Hygroscopicity (%)” value [2] was 18.05%.
With `Cc1ccc(S(=O)(=O)O)cc1` [p-Toluene sulfonic acid] the Salt-forming morphology [1] was “Gel*”.
For `COc1ccc(CCC(=O)N(CCCN)CCCNCCCN(CCCN)C(=O)CCc2ccc(OC)c(OC)c2)cc1OC` [bis((N-3-aminopropyl)-(N-(3,4-dimethoxyphenylpropionyl)))aminopropylamine phosphate], the “Change in properties and purity on storage” value ([3]; 25° C./60% RH, open vial) was “no obvious change in properties and purity”, the “Purity (peak area, %) 0 day” value ([3]; 25° C./60% RH, open vial, HPLC) was 99.56% and the “Stability (judgement in words)” value [3] was “good stability”. The Hygroscopicity class [2] was “slightly hygroscopic”, the “Hygroscopicity (%)” value [2] was 1.29% and the solubility ([5]; simulated fasting intestinal juice (FaSSIF), fassif, simulated fasting intestinal juice, read-out: Solubility in FaSSIF) was > 9000 µg/mL. For the same molecule, the solubility ([5]; simulated feeding intestinal juice (FeSSIF), fessif, simulated feeding intestinal juice, read-out: Solubility in FeSSIF) was > 9000 µg/mL, the solubility ([5]; simulated gastric juice (SGF), simulated gastric fluid, simulated gastric juice, read-out: Solubility in SGF) was > 9000 µg/mL and the solubility ([5]; water, 30 mg in 3 mL, read-out: Solubility in water) was > 9000 µg/mL. For the same molecule, the “pH value change during dynamic solubility test” value ([5]; within 24 h) was “did not change”.
For `COc1ccc(CCC(=O)N(CCCN)CCCNCCCN(CCCN)C(=O)CCc2ccc(OC)c(OC)c2)cc1OC` [Example 7, bis((N-3-aminopropyl)-(N-(3,4-dimethoxyphenylpropionyl)))aminopropylamine phosphate], the “Change in crystal form after storage” value ([6]; 25° C./60% RH) was “no change in crystal form”, the “Change in crystal form after storage” value ([6]; 60° C.) was “no change in crystal form” and the “Change in crystal form after storage” value ([6]; 80° C.) was “no change in crystal form”. The “Change in crystal form after storage” value ([6]; illumination) was “no change in crystal form”.
In the case of `O=C(O)c1cc(O)ccc1O` [Gentisic acid], the Salt-forming morphology [1] is reported as “Gel^†”.
In the case of `O=C(O)CCC(=O)O` [Succinic acid], the Salt-forming morphology [1] is reported as “Gel*”.
In the case of `COc1ccc(CCC(=O)NCCCN(CCCN)CCCNC(=O)CCc2ccc(OC)c(OC)c2)cc1OC.O=P(O)(O)O` [Comparative Example 1, bis((N-3-aminopropyl)-(N-(3,4-dimethoxyphenylpropionyl)))aminopropylamine phosphate], the “Hygroscopic behaviour of solid after filtration” value [7] is reported as “extremely hygroscopic and quickly turned into an oil”.
For `O=C(O)/C=C\C(=O)O` [Maleic acid], the Salt-forming morphology [1] was “Gel^#”.
In the case of `COc1ccc(CCC(=O)NCCCN(CCCN)CCCNC(=O)CCc2ccc(OC)c(OC)c2)cc1OC` [free base, bis((N-3-aminopropyl)-(N-(3,4-dimethoxyphenylpropionyl)))aminopropylamine], the Purity before storage ([8]; initial) is reported as 97.56% and the “Purity after left at room temperature for 7 days” value ([8]; room temperature, 7 days) is reported as 73.73%.
In the case of `O=C(O)CNC(=O)c1ccccc1` [Hippuric acid], the Salt-forming morphology [1] is reported as “Oil^#”.
